Tests used:
mtPTP = assay: Ca2+ overload induced mitochondrial swelling in isolated mouse liver mitochondria; assay type: biochemical; conditions: isolated mouse liver mitochondria; average ± SEM, n = 3-41; read-out: Mitochondrial Swelling EC50
Procedure: We next sought to evaluate the effects of TR001-13 on mtPTP activity in vitro. This was performed on isolated mitochondria. In isolated mitochondria induction of mtPTP opening leads to mitochondrial swelling due to the oncotic pressure gradient created by matrix proteins >1.5 kDa that cannot diffuse through the open pore. In in vitro experiments, where isolated mitochondria are routinely suspended in sucrose-based isosmotic solutions, the change in mitochondrial size can be measured spectrometrically by detecting the decrease in light scattering at 540 nm.
Isolation of mitochondria. C57BL6/N mouse liver mitochondria were prepared from 2 to 6 month old male mice by standard differential centrifugation. Mice fed ad libitum were euthanized with CO2 followed cervical dislocation, their livers were existed and placed in a glass beaker containing ice-cold isolation buffer (IB: 0.25 m sucrose, 10 mm Tris-HCl, 0.1 mm EGTA-Tris, pH 7.4) supplemented with fatty acid free bovine serum albumin. Livers were then cut into small pieces with scissors, rinsed with ice-cold IB, and passed through a pre-chilled Potter homogenizer with Teflon pestle. The homogenate (˜30 mL per liver) was transferred to centrifuge tubes, and unbroken cells and nuclei were removed by centrifugation at 700 g for 10 min at 4° C. The supernatant containing mitochondria and other organelles was transferred to new tubes and centrifuged at 6000 g for 10 min at 4° C. The resulting supernatant was discarded and mitochondrial pellet was carefully suspended in ice-cold IB and spun at 9500 g for 5 min at 4° C. The pellet was suspended in IB to give a protein concentration of ˜60-80 mg/mL and stored on ice. Experiments were started immediately and completed within 5 h. Protein concentration was determined by the Biuret method.
Assessment of mitochondrial swelling. Changes in mitochondrial volume of isolated mouse liver mitochondria were followed in a 96-well clear assay plate at a final volume of 0.2 mL and 0.25 mg/mL mitochondrial protein. Absorbance was read for 30 min at 540 nm on a Tecan Infinite F200 plate reader. Activity of test compounds was addressed as follows: First, 0.1 mL of sucrose assay buffer (SAB: 0.250 m sucrose, 10 mm MOPS-Tris, 0.01 mm EGTA-Tris, 1.0 mm phosphoric acid-Tris, 10 mm glutamate and 5 mm malate, pH 7.4) supplemented with twice the CaCl2 concentration required to induce mitochondrial swelling (which was determined for each preparation of mitochondria, typically 50 μm) was dispensed to the assay plate. A set of wells also contained 2.0 mm EGTA (to prevent mitochondrial swelling). The test wells contained a range of concentrations (in 1:2 serial dilutions) of the compounds of interest or 2% DMSO. Experiments were started by the addition of 0.1 mL of mitochondrial suspension (0.5 mg/mL mitochondria in SAB without respiratory substrates) to the assay plates. EC50s±SE were determined with OriginPro software by applying Hill1 function fitting algorithm on average concentration response data of n=3-41 independent preparations.

[1] = test system: col6a1 zebrafish morphants; assay: Survival of col6a1 zebrafish morphants; assay type: in vivo
Text: In FIG. 6D, the left panel represents data from embryos injected with a scrambled morpholino (scrd_MO, open squares), Exon 9 col6a1 morpholino (col6a1_MO, closed squares) and col6a1_MO embryos treated with TR001 at 0.1 μm (open circles), 1.0 μm (open triangles), 10 μm (open diamonds). Right panel represents data from embryos injected with a scrambled morpholino (scrd_MO, open squares), Exon 9 col6a1 morpholino (col6a1_MO, closed squares) and col6a1_MO embryos treated with 63 at […] (closed circles), 1.0 μm (closed triangles), 10 μm (closed diamonds). Embryos were treated with oligomycin, FCCP, rotenone (R) and antimycin A (A) as indicated. Results are presented as mean±SEM. Both graphs report data from 5 independent experiments with n=20 for each treatment. Error bars are reported as SEM. FIG. 6E, Survival of DMSO-treated zebrafish injected with the scrambled morpholino (open squares), DMSO-treated col6a1 morphants (closed squares) and col6a1 morphants treated with TR001 (0.1 μm, open triangles; 1.0 μm, open circles; 10 μm, open diamonds) or 63 (0.1 μm, closed triangles; 1.0 μm, closed circles; 10 μm, closed diamonds) were recorded for 30 days. Treatment started at 21 hpf and repeated at 4 dpf (arrows). Data report the percentage of surviving fish and are mean±SEM from 3 independent experiments (n=15 for each condition in each set).
Finally, fish survival was also assessed. Fifty percent of col6a1 morphant embryos treated with 0.1 μm of TR001 survived 7 days longer than col6a1 morphants treated with DMSO (p<0.0001 from 3 to 12 dpf), and 20% were still alive at 30 dpf (i.e., after 29 days of treatment) (FIG. 6E).
Morpholino antisense injection and treatment. Knock-down of col6a1 gene expression was obtained with a previously published morpholino ^[25] with sequence GAGAGCGGAAGACGAACCTTCATTC (SEQ ID NO: 2; GeneTools, Inc.). A control morpholino with no sequence homology in the zebrafish genome was used in parallel (CCTCTTACCTCAGTTACAATTTATA; SEQ ID NO: 3). Zebrafish eggs from wild-type matings were injected at the 1-2 cell stage with approximately 10 nL of 0.1 mm morpholino solution (corresponding to 4 ng of morpholino) using a WPI pneumatic PicoPump PV820 injector (World Precision Instruments, Inc.). Zebrafish embryos were dechorionated at 20 hours post fertilization (hpf) and treated at 21 hpf with increasing doses (0.1, 1 and 10 μm) of both TR001 and 63 compounds dissolved in fish water with 1% DMSO (vehicle).
Survival. Zebrafish survival was monitored every 3 days for 30 days. Drug treatment with both TR001 and 63 dissolved in fish water with 1% DMSO started at 21 hpf. After 3 days of treatment (4 days post fertilization, dpf), zebrafish were moved to a bigger tank (50 mL) with fresh compounds dissolved in 1% DMSO. As a control vehicle, fish water with 1% DMSO was used.

Cc1ccc(Cl)cc1NC(=O)c1cn(-c2ccc(F)c(O)c2)nn1 [TR001, N-(5-chloro-2-methylphenyl)-1-(4-fluoro-3-hydroxyphenyl)-1H-1,2,3-triazole-4-carboxamide]
EC50 (mtPTP): 29 ± 8 nM
days longer survival of fifty percent of embryos than DMSO treated morphants ([1]; 0.1 μm): 7 days
percent still alive at 30 dpf ([1]; 0.1 μm, after 29 days of treatment): 20%
survival (in words) ([1]; 1 μm): effective at improving survival rate
survival (in words) ([1]; 10 μm): ineffective

— US12398110B2, “Second generation inhibitors of mitochondrial permeability transition pore with improved plasma stability” (Oregon Health & Science University, priority 2019, dated 2025)
